Experiment in all cases: NCI anticancer screen, dose series, 48 h
Experiment [1] concerns CAKI-1.
Experiment [2] concerns A549.
Experiment [3] concerns M14.
The subject of experiment [4] is CCRF-CEM.
In experiment [5] the test system is RXF 393.
Experiment [6] relates to NCI/ADR-RES.
The subject of experiment [7] is DU-145.
The test system of experiment [8] is SW-620.
For experiment [9], the system named is ACHN.
For experiment [10], the system named is OVCAR-3.
For experiment [11], the system named is EKVX.
Experiment [12] deals with K562.
Experiment [13] relates to NCI-H522.
Experiment [14] concerns UACC-62.
The subject of experiment [15] is PC-3.
Experiment [16] deals with HCT-116.
Experiment [17] has as its system SNB-19.
For experiment [18], the system named is NCI-H460.
The test system of experiment [19] is Malme-3M.

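Compound exposure: 48 hours, 5 concentrations, 96-well plates. GI50 = concentration required for 50% inhibition of growth.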 Calls of active or inactive are those of the source. Rule as the data show it: active = GI50 up to about 1.1 µM and inactive = higher.

`Cc1cc2c3c(nc4ccccc42)C(=O)c2ccccc2-c3n1`: the GI50 was 12.3 µM (inactive) in experiment [1]; 7.1 µM (inactive) in experiment [2]; 4.44 µM (inactive) in experiment [3]; 5.16 µM (inactive) in experiment [4]; 20.3 µM (inactive) in experiment [5]; 6.53 µM (inactive) in experiment [6]. In addition, the GI50 in experiment [7] is 23.5 µM (inactive); in experiment [8], 9.48 µM (inactive); in [9], 12.2 µM (inactive); in experiment [10], 0.135 µM (active); in experiment [11] it was 29.4 µM (inactive); in experiment [12], 0.839 µM (active). For the same compound, the GI50 in [13] is 1.68 µM (inactive); in experiment [14], 1.8 µM (inactive); in [15], 0.851 µM (active); in experiment [16], 8.59 µM (inactive); in experiment [17], 45.8 µM (inactive).

Turning to `O=C(NC(CCCCN1C(=O)c2ccccc2C1=O)P(=O)(Oc1ccccc1)Oc1ccccc1)OCc1ccccc1` (stereo not given), the GI50 in [18], in experiment [1], in experiment [2], in [3], in [5] and in experiment [6] was > 100 µM (inactive) each time. The GI50 in experiment [7], in [8], in [9], in experiment [10], in experiment [19] and in experiment [11] was > 100 µM (inactive) throughout. Also, the GI50 in [13] was 75 µM (inactive); in [14], > 100 µM (inactive); in experiment [15], > 100 µM (inactive); in experiment [17], > 100 µM (inactive).

Take `Nc1ncnc2c1ncn2[C@H]1CC[C@@H](NO)C1`: the GI50 in experiment [18], in [1], in [2], in experiment [3], in [4] and in experiment [5] was > 100 µM (inactive) each time. Besides, the GI50 in experiment [6], in experiment [7], in experiment [8], in experiment [9], in experiment [10] and in experiment [19] was > 100 µM (inactive) in each case. Further, the GI50 in [11], in [12], in [13], in [14], in [15] and in [16] was > 100 µM (inactive) each time. The GI50 in experiment [17] is > 100 µM (inactive).

As to `Cc1ccc(OCCn2cc(Nc3ccccc3)c(=O)n(CCOc3ccc(C)cc3)c2=O)cc1`, the GI50 was > 100 µM (inactive) in [18]; > 100 µM (inactive) in experiment [1]; 28.8 µM (inactive) in experiment [2]; > 100 µM (inactive) in [3]; > 100 µM (inactive) in experiment [4]; 23.5 µM (inactive) in experiment [5]. In addition, the GI50 in experiment [6] is > 100 µM (inactive); in [7] it was > 100 µM (inactive); in experiment [8] it was > 100 µM (inactive); in experiment [9], > 100 µM (inactive); in experiment [10], > 100 µM (inactive); in [19] it was 80 µM (inactive). Moreover, the GI50 was > 100 µM (inactive) in experiment [11]; 70.5 µM (inactive) in experiment [12]; 97.7 µM (inactive) in experiment [13]; > 100 µM (inactive) in experiment [14]; 93.5 µM (inactive) in experiment [15]; > 100 µM (inactive) in [16]. Besides, the GI50 in experiment [17] is 48.9 µM (inactive).

In the case of `C/C=C\C(CC(=O)NCCC1CN(S(=O)(=O)c2ccc(C)cc2)c2ccccc21)CC(=O)OC` (stereo not given), the GI50 in [18], in [1], in [2], in experiment [3], in experiment [5] and in [6] was > 100 µM (inactive) each time. For the same compound, the GI50 in [7], in experiment [8], in [9], in experiment [10], in experiment [19] and in experiment [11] was > 100 µM (inactive) each time. Besides, the GI50 in experiment [12], in experiment [13], in experiment [14], in experiment [15], in experiment [16] and in experiment [17] was > 100 µM (inactive) in each case.

On to `COc1cccc(CSCC(=O)O)c1`, for which the GI50 in experiment [18], in experiment [1], in experiment [2], in experiment [3], in experiment [5] and in experiment [6] was > 100 µM (inactive) each time. Further, the GI50 in experiment [7], in experiment [8], in experiment [9], in experiment [10], in [19] and in experiment [11] was > 100 µM (inactive) throughout. Besides, the GI50 in experiment [12], in [13], in experiment [14], in experiment [15], in experiment [16] and in experiment [17] was > 100 µM (inactive) in each case.

In the case of `CCOC(=O)CCC(NC(=O)OCc1ccccc1)C(=O)NC(CCC(=O)OCC)C(=O)NC(CCC(=O)OCC)C(=O)NC(CCC(=O)OCC)C(=O)NC(CCC(=O)OCC)C(=O)OCC` (stereo not given), the GI50 in [18], in [1], in experiment [2], in [3], in experiment [4] and in [5] was > 100 µM (inactive) throughout. Further, the GI50 in experiment [6], in [7], in [8], in [9], in [19] and in [11] was > 100 µM (inactive) each time. The GI50 in experiment [13], in [14], in experiment [15] and in experiment [16] was > 100 µM (inactive) each time.

As to `Cc1nc2c(sc3nc4ccccc4n32)c(=O)[nH]1`, the GI50 in experiment [1], in experiment [2], in [3], in experiment [4], in experiment [5] and in experiment [6] was > 100 µM (inactive) in each case. The GI50 in experiment [7], in experiment [8], in experiment [9], in experiment [10], in [19] and in experiment [11] was > 100 µM (inactive) each time. Besides, the GI50 in experiment [13], in experiment [14], in experiment [15], in experiment [16] and in [17] was > 100 µM (inactive) throughout.

The record behind these values is ChEMBL document CHEMBL1201862, “PubChem BioAssay data set” (2004).
